{"source": "paper PMC8857812", "about": "(BMC Complementary Medicine and Therapies, 2022)", "format_in_all_cases": "in vitro ADME", "key": {"[1]": {"biological_target": "T1, CYP2C19 (Homo sapiens, UniProt P33261)", "T1 construct": "tissue PrimeTox M10000.201800; host or cells: pooled human liver microsomes (50 donors)", "T1 sequence (P33261 whole entry)": "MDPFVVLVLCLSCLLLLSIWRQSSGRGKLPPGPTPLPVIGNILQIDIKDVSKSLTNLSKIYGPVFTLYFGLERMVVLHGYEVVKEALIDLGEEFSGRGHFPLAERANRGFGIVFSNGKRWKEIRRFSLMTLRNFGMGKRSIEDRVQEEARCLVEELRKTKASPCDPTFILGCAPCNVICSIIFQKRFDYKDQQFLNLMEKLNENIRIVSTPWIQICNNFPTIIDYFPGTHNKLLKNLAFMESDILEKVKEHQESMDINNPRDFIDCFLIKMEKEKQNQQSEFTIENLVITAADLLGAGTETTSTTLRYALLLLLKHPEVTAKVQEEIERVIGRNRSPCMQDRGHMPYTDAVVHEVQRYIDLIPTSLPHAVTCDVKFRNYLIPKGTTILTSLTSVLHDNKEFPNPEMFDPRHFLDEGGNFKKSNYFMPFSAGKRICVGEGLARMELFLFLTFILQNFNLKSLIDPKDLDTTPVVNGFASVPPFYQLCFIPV", "assay": "Inhibition kinetics of CYP2C19 in HLMs (Lineweaver-Burk plots)", "excerpt": "(§1) A one enzyme Michaelis Menten model with competitive substrate inhibition: V=VmaxS/Km1+I/KI+Sa\n(§2) Michaelis-Menten model with uncompetitive substrate inhibition: V=VmaxS/Km+S1+I/KIKi"}, "[2]": {"biological_target": "T2, CYP2E1 (Homo sapiens, UniProt P05181)", "T2 construct": "tissue PrimeTox M10000.201800; host or cells: pooled human liver microsomes (50 donors)", "T2 sequence (P05181 whole entry)": "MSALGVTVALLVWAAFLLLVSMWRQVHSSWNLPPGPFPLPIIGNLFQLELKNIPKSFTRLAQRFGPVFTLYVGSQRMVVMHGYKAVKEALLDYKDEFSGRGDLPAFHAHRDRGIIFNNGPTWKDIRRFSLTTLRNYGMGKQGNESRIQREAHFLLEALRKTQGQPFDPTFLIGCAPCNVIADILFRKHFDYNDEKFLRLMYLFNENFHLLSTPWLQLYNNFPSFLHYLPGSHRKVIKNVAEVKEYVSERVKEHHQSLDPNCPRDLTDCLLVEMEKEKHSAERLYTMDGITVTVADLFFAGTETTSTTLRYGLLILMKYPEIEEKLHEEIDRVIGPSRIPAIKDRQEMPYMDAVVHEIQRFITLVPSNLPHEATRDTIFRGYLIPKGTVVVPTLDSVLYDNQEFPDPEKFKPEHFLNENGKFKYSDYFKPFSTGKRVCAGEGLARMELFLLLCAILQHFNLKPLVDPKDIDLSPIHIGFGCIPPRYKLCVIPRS", "assay": "Assessment of time-dependent inhibition of CYP2E1 in HLMs", "settings": "20 μM ECH; incubation 0-30 min", "method": "(§3) After the first incubation, an aliquot (20 μL) was transferred to another incubation tube, added probe substrates and start the reaction by an NADPH-generating system. After incubation for 0, 5, 10, 15, and 30 min, the corresponding metabolites were determined by HPLC-MS."}, "[3]": {"biological_target": "T1, CYP2C19", "assay": "Assessment of time-dependent inhibition of CYP2C19 in HLMs", "settings": "10 μM ECH; incubation 0-30 min", "method": "as §3"}, "[4]": {"biological_target": "T2, CYP2E1", "assay": "Inhibition kinetics of CYP2E1 in HLMs (Lineweaver-Burk plots)", "excerpt": "as §1, §2"}, "[5]": {"biological_target": "T3, CYP3A4 (Homo sapiens, UniProt P08684)", "T3 construct": "tissue PrimeTox M10000.201800; host or cells: pooled human liver microsomes (50 donors)", "T3 sequence (P08684 whole entry)": "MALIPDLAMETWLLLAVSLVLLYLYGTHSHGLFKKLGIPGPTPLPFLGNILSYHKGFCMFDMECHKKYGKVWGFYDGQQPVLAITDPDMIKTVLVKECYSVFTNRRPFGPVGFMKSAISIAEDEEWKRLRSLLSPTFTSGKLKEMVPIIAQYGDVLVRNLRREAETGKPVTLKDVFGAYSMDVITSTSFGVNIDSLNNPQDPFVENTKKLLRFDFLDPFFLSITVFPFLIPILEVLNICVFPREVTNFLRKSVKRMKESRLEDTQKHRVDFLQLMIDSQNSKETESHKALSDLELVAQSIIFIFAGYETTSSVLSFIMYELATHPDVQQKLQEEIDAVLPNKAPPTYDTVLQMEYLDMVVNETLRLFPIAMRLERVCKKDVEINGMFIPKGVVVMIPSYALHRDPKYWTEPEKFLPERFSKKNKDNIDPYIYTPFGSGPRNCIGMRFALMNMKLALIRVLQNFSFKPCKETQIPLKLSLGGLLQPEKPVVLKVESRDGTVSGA", "assay": "CYP3A4 inhibition in HLMs, testosterone 6β-hydroxylation probe reaction", "settings": "100 μM ECH, p < 0.001 vs Control", "method": "(§4) Eight positive controls were used for different CYPs: 10 μM furafylline for CYP1A2, 50 μM clomethiazole for CYP2E1, 50 μM tranylcypromine for CYP2C19, 1 μM ketoconazole for CYP3A4, 10 μM tranylcypromine for CYP2A6, 5 μM montelukast for CYP2C8, 10 μM sulfaphenazole for CYP2C9, and 10 μM quinidine for CYP2D6. […] The reaction was initiated by adding a newly prepared NADPH generating system, maintained at 37 °C for 30 min, and then terminated by the addition of acetonitrile. The incubation conditions were optimized to assure that the reaction was linear with time and protein concentration. Blank HLMs were incubated as Control. The supernatant was obtained after centrifugation at 14000 r/min, 15 min for LC-MS analysis.\n(§5) The quantification for the corresponding metabolites was performed using a validated single LC/MS/MS run at an Ultimate 3000 HPLC system and a TSQ Quantis™ triple quadrupole mass spectrometer equipped with a heated electrospray ionization (ESI) source (Thermo Fisher, USA). […]\n(§6) The relative enzyme activity was observed by High-Performance Liquid Chromatography (HPLC)-Mass Spectrometry (MS). IC50 values were calculated by Graphpad Prism 7."}, "[6]": {"biological_target": "T4, CYP2A6 (Homo sapiens, UniProt P11509)", "T4 construct": "tissue PrimeTox M10000.201800; host or cells: pooled human liver microsomes (50 donors)", "T4 sequence (P11509 whole entry)": "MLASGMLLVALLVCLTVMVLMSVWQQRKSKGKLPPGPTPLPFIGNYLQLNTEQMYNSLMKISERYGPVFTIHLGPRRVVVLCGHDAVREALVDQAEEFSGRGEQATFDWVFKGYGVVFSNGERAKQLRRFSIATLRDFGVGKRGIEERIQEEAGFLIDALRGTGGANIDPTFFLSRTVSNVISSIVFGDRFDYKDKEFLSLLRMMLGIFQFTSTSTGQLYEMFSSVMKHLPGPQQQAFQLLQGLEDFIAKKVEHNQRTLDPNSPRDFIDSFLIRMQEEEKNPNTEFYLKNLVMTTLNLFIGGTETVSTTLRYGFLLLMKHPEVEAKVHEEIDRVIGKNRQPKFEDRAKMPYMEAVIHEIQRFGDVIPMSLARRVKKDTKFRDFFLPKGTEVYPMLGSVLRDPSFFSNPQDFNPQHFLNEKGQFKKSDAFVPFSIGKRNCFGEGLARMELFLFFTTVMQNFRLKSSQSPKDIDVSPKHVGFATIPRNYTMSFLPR", "assay": "CYP2A6 inhibition in HLMs, coumarin 7-hydroxylation probe reaction", "settings": "HLM; even in 100 μM concentrations", "method": "as §4\n(§7) The quantification for the corresponding metabolites was performed using a validated single LC/MS/MS run at an Ultimate 3000 HPLC system and a TSQ Quantis™ triple quadrupole mass spectrometer equipped with a heated electrospray ionization (ESI) source (Thermo Fisher, USA). The mobile phase was consisted of solvent A (0.01% acetic acid and 5 mmol/L ammonium acetate) and solvent B (methanol-acetonitrile,1:1, v/v) according to the following gradient: 0-0.5 min, B 2%; 0.5-4.0 min, B 2 to 45%; 4.0-6.5 min, B 45 to 60%; 6.5-6.8 min, B 60 to 80%; 6.8-7.2 min, B 80%; 7.2-7.5 min, B 80 to 2%; 7.5-10.0 min, B 2%. […]"}, "[7]": {"biological_target": "T5, CYP2C9 (Homo sapiens, UniProt P11712)", "T5 construct": "Phenotyping experiments were conducted by probe reactions of eight HLMs CYPs; tissue PrimeTox M10000.201800; host or cells: pooled human liver microsomes (50 donors)", "T5 sequence (P11712 whole entry)": "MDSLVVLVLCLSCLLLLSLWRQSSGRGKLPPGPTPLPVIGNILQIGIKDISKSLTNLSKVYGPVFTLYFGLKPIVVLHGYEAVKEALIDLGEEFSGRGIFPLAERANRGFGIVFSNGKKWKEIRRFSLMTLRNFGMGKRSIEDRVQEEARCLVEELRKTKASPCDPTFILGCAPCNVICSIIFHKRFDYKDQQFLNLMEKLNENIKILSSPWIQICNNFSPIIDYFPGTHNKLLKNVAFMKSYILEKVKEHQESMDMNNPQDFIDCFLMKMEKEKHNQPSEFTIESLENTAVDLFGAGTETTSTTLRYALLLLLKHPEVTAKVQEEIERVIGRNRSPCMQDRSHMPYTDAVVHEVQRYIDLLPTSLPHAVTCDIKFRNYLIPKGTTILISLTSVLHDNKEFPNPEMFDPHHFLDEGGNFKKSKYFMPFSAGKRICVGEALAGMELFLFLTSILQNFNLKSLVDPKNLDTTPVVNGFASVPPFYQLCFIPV", "assay": "CYP2C9 inhibition in HLMs, diclofenac 4′-hydroxylation probe reaction", "settings": "HLM; even in 100 μM concentrations", "method": "as §4, §7"}, "[8]": {"biological_target": "T1, CYP2C19", "assay": "CYP2C19 inhibition in HLMs, S-mephenytoin 4-hydroxylation probe reaction", "settings": "100 μM ECH, p < 0.001 vs Control", "method": "as §4, §5, §6"}, "[9]": {"biological_target": "T6, CYP2D6 (Homo sapiens, UniProt P10635)", "T6 construct": "Phenotyping experiments were conducted by probe reactions of eight HLMs CYPs; tissue PrimeTox M10000.201800; host or cells: pooled human liver microsomes (50 donors)", "T6 sequence (P10635 whole entry)": "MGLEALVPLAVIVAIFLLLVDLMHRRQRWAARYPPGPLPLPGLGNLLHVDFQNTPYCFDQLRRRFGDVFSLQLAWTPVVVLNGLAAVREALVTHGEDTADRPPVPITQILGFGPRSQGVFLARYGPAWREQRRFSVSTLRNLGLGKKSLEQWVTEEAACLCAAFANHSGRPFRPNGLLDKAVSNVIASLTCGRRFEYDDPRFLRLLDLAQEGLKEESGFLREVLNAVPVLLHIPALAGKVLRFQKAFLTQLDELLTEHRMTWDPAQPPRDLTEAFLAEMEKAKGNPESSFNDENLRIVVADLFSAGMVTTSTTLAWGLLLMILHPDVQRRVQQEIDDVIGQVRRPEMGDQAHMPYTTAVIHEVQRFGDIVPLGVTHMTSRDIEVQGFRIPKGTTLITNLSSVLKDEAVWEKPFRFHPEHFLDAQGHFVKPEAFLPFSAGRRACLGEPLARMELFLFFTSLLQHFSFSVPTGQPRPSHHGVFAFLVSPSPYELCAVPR", "assay": "CYP2D6 inhibition in HLMs, dextromethorphan O-demethylation probe reaction", "settings": "HLM; even in 100 μM concentrations", "method": "as §4, §7"}, "[10]": {"biological_target": "T2, CYP2E1", "assay": "CYP2E1 inhibition in HLMs, chlorzoxazone 6-hydroxylation probe reaction", "settings": "100 μM ECH, p < 0.001 vs Control", "method": "as §4, §5, §6"}, "[11]": {"biological_target": "T3, CYP3A4", "assay": "Time-dependent inhibition and inactivation kinetics of CYP3A4 in HLMs", "method": "as §3\nCYPs time-dependent inhibition: Kobs=KinactI/KI+I"}, "[12]": {"settings": "pre-incubation 0-30 min, ECH 0-50 μM, estimated from curve fitting of Kobs"}}}
{"substance": "Echinacoside", "values": [{"measurement": "mode of inhibition of CYP2C19", "setting": "[1]", "value": "competitive type"}, {"measurement": "time dependence of CYP2E1 inhibition", "setting": "[2]", "value": "time-independent"}, {"measurement": "time dependence of CYP2C19 inhibition", "setting": "[3]", "value": "time-independent"}, {"measurement": "α value for CYP2E1", "setting": "[4]", "value": "not 1"}, {"measurement": "mode of inhibition of CYP2E1", "setting": "[4]; Lineweaver-Burk plots", "value": "mixed type"}, {"measurement": "effect on relative activity of CYP3A4", "setting": "[5]", "value": "significant decrease"}, {"measurement": "inhibition of CYP2A6", "setting": "[6]", "value": "no significant inhibition"}, {"measurement": "inhibition of CYP2C9", "setting": "[7]", "value": "no significant inhibition"}, {"measurement": "effect on relative activity of CYP2C19", "setting": "[8]", "value": "significant decrease"}, {"measurement": "inhibition of CYP2D6", "setting": "[9]", "value": "no significant inhibition"}, {"measurement": "effect on relative activity of CYP2E1", "setting": "[10]", "value": "significant decrease"}, {"measurement": "time dependence of CYP3A4 inhibition", "setting": "[11]; 50 μM ECH, incubation 0-30 min", "value": "time-dependent"}, {"measurement": "KI (time-dependent inhibition of CYP3A4)", "setting": "[11]; [12]", "value": 6.63, "unit": "µM"}, {"measurement": "Kinact (time-dependent inhibition of CYP3A4)", "setting": "[11]; [12]", "value": 0.066, "unit": "min^− 1"}]}
